This assay has as its target T1, human PDHK2 (hPDHK2) (Homo sapiens, UniProt Q15119).
T1 construct: made in house; host or cells: Escherichia coli BL21(DE3), pET-17b vector
The assay is described as follows: Inhibitory action of PDHK2 activity (residual PDH activity, NADH absorbance at 340 nm). The conditions noted are these: PDH/hPDHK2 complex, PDHK reaction 45 min at room temperature. Format: biochemical. As for the experimental part: In the case of human PDHK2 (hPDHK2, NCBI Reference Database Accession number NM_002611.4), modified hPDHK2 cDNA wherein FLAG-Tag sequence was added to the N terminus of hPDHK2 cDNA clone (pReceiver-M01/PDK2-GeneCopoeia) as the base was prepared by polymerase chain reaction (PCR) and ligated to the NdeI/EcoRI site of pET-17b vector (Merck KGaA, Catalog Number 69663-3). The recombinant construct was transformed into Escherichia coli DH5α. The recombinant clones were identified, and plasmid DNA was isolated and subjected to the DNA sequence analysis. One clone which had the expected nucleic acid sequence was selected for expression work.
For expression of hPDHK2 activity, Escherichia coli strain BL21(DE3) cells (Merck KGaA, Catalog Number 69450-4) were transformed with the pET17b vector containing modified hPDHK2 cDNA. The Escherichia coli were grown to an optical density 0.6 ([…]) at 30° C. Protein expression was induced by the addition of 500 μmol/L isopropyl-β-thiogalactopyranoside. The Escherichia coli were cultured at 20° C. for 17-18 hr and harvested by centrifugation. The harvested Escherichia coli was resuspended in a suspension buffer (20 mmol/L HEPES-NaOH, 500 mmol/L sodium chloride, 1% ethylene glycol, 0.1% Pluronic (registered trademark) F-68 (pH 8.0), cOmplete, EDTA-free (Roche) (pH 8.0)), and disrupted by a microfluidizer M-110H (MIZUHO INDUSTRIAL CO., LTD.). The precipitate was removed by centrifugation and the supernatant was added to DDDDK-tagged Protein PURIFICATION GEL (MEDICAL & BIOLOGICAL LABORATORIES CO., LTD., Code No. 3329). DDDDK-tagged Protein PURIFICATION GEL was washed with a washing buffer (20 mmol/L HEPES-NaOH, 500 mmol/L sodium chloride, 1% ethylene glycol, 0.1% Pluronic F-68 (pH 8.0)) and the bound protein was eluted with elution buffer 1 (20 mmol/L HEPES-NaOH, 100 μg/mL peptide (amino acid sequence DYKDDDDK) (SEQ ID NO: 1), 500 mmol/L sodium chloride, 1% ethylene glycol, 0.1% Pluronic F-68 (pH 8.0)). The eluted fractions containing FLAG-Tagged protein were pooled, concentrated by an ultrafiltration method, added to a gel filtration column (HiLoad 26/60 Superdex 200 (GE Healthcare Life Sciences, Code No. 17-1070-01)), and eluted with elution buffer 2 (20 mmol/L HEPES-NaOH, 150 mmol/L sodium chloride, 0.5 mmol/L ethylenediaminetetraacetic acid (EDTA), 1% ethylene glycol, 0.1% Pluronic F-68 (pH 8.0)). The eluted fractions were pooled and preserved at −80° C.
PDH (porcine heart PDH complex, Sigma P7032) and 0.5 μg/mL hPDHK2 were mixed in an assay buffer (50 mmol/L 3-morpholinopropanesulfonic acid (pH 7.0), 20 mmol/L dipotassium hydrogen phosphate, 60 mmol/L potassium chloride, 2 mmol/L magnesium chloride, 0.4 mmol/L EDTA, 0.2% poloxamer, 2 mmol/L dithiothreitol) so that the final concentration of PDH was 0.025 U/mL, and the mixture was incubated at 4° C. overnight to obtain a PDH/hPDHK2 complex solution.
PDH was mixed with the assay buffer so that the final concentration was 0.025 U/mL, and the mixture was incubated at 4° C. overnight to prepare a PDH solution.
The test compounds were diluted with DMSO. To measure an inhibitory action of the test compound on the PDHK activity in the PDH/hPDHK2 complex solution, PDH/hPDHK2 complex solution (20 μL), test compound (1.5 μL) and 1.06 μmol/L ATP (diluted with assay buffer) (8.5 μL) were added to a 384 well microplate (Greiner Bio-One 781801) and PDHK reaction was performed at room temperature for 45 min (test compound well). DMSO (1.5 μL) was added to control wells instead of test compound. In addition, DMSO (1.5 μL) was added to blank wells instead of the test compound, and PDH solution was added instead of the PDH/hPDHK2 complex solution. To measure an inhibitory action of the test compound on the PDHK activity inherent in the PDH solution, a test compound was added and the PDH solution instead of the PDH/hPDHK2 complex solution was added to a blank+test compound well. […]
As usually defined, the IC50 is the concentration that gives 50% inhibition. Higher therefore signals weaker potency. Regarding `C[C@H]1Cn2nc(OCCC3(C#N)CC3)cc2-c2cnc([C@@](C)(O)C(F)(F)F)n21` [Example 88], the IC50 was determined as 0.017 µM.
Then `C[C@H]1Cn2c(nnc2C2(c3ccc(Cl)cc3)COC2)-c2cnc([C@@](C)(O)C(F)(F)F)n21` [Example 89], with 0.0088 µM; and `C[C@H]1Cn2c(nnc2C(C)(F)F)-c2cnc([C@@](C)(O)C(F)(F)F)n21` [Example 90], with 0.015 µM.
In the case of `C[C@H]1Cn2c(nnc2C(C)(C)F)-c2cnc([C@@](C)(O)C(F)(F)F)n21` [Example 91] it was 0.011 µM.
Molecule `C[C@H]1Cn2c(nnc2C(O)(C(F)(F)F)C(F)(F)F)-c2cnc([C@@](C)(O)C(F)(F)F)n21` [Example 92] displayed an IC50 of 0.016 µM.
Then `COC(c1nnc2n1C[C@H](C)n1c-2cnc1[C@@](C)(O)C(F)(F)F)(C(F)(F)F)C(F)(F)F` [Example 93], with 0.021 µM; and `C[C@H]1Cc2cc(C#N)ccc2-c2cnc([C@@](C)(O)C(F)(F)F)n21` [Example 94], with 0.0086 µM.
Then `C[C@H]1Cn2nc(Oc3ccc(C#N)nc3)cc2-c2cnc([C@@](C)(O)C(F)(F)F)n21` [Example 95], with 0.018 µM; and `C[C@H]1Cn2nc(OCCOC(F)F)cc2-c2cnc([C@@](C)(O)C(F)(F)F)n21` [Example 96], with 0.013 µM; and `C[C@H]1Cn2c(nnc2C2CC2c2ccccc2)-c2cnc([C@@](C)(O)C(F)(F)F)n21` (stereo partly shown) [Example 97], with 0.0062 µM.
Consider `C[C@H]1Cn2c(-c3ccc(F)c(OC(C)(C)C)c3)nnc2-c2cnc([C@@](C)(O)C(F)(F)F)n21` [Example 98], for which the IC50 was found to be 0.012 µM.
Then `C[C@H]1Cn2c(nnc2C2(F)CC2)-c2cnc([C@@](C)(O)C(F)(F)F)n21` [Example 99], with 0.0085 µM; and `C[C@H]1Cn2c(nnc2C(C)(C(F)(F)F)C(F)(F)F)-c2cnc([C@@](C)(O)C(F)(F)F)n21` [Example 100], with 0.0095 µM.
In the case of `C[C@H]1Cn2nc(O[C@@H]3CCOC3)cc2-c2cnc([C@@](C)(O)C(F)(F)F)n21` [Example 101] it was 0.014 µM; in that of `C[C@H]1Cn2nc(O[C@H]3CCOC3)cc2-c2cnc([C@@](C)(O)C(F)(F)F)n21` [Example 102], 0.016 µM; in that of `C[C@H]1Cn2c(cc(=O)n2C(F)F)-c2cnc([C@@](C)(O)C(F)(F)F)n21` [Example 103], 0.026 µM.

Source of the values: patent US20230025880A1, “FUSED TRICYCLIC COMPOUND AND MEDICINAL USE THEREOF” (JAPAN TOBACCO INC., priority 2020, published 2023).
